{"source": "patent US20240108641A1", "about": "“COMPOSITIONS FOR ORAL ADMINISTRATION OF ZOLEDRONIC ACID OR RELATED COMPOUNDS FOR TREATING DISEASE” (ANTECIP BIOVENTURES II LLC, priority 2012, published 2024)", "key": {"[1]": {"test_system": "knee pain (knee osteoarthritis and knee bone marrow lesions)", "assay": "clinical study in knee osteoarthritis with bone marrow lesions, VAS pain", "format": "in vivo, human", "settings": "5 mg intravenous; for average VAS scores decreased from baseline: 3 months; for average VAS scores reduced as compared to placebo: three months", "text": "Some embodiments related to joint pain, bone marrow lesions, and osteoarthritis were conceived as a result of analyzing data from a clinical study. Some of the results of this study were reported by Laslett et al. in Ann Rheum Dis 2012; 71:1322-1328. Some of the description and data reported below was not published prior to filing the present application. Fifty-two (52) patients with clinical knee osteoarthritis and knee bone marrow lesions (BML) were randomized to receive either intravenous zoledronic acid (5 mg) or placebo in a double blind fashion. All patients had to have at least one bone marrow lesion (BML) in the affected knee on magnetic resonance imaging (MRI). All patients had x-ray of the knee for determination of joint space narrowing (JSN), which was graded according to the Osteoarthritis Research Society International (OARSI) atlas. Patients had either no joint space narrowing (OARSI Grade 0), or greater degrees of joint space narrowing (OARSI Grade 1 and Grade 2). Twenty six patients were treated with zoledronic acid (8, 6, and 12 with OARSI Grades 0, 1, and 2, respectively). Twenty six patients received placebo (8, 8, and 10 with OARSI Grades 0, 1 and 2, respectively).\nPain intensity was assessed at baseline and at three months, using a 100 mm visual analog scale (VAS), with zero representing no pain and 100 representing extreme pain. The change in pain intensity from baseline to 3 months was calculated."}, "[2]": {"test_system": "complex regional pain syndrome (CRPS)", "assay": "rat tibia fracture model of complex regional pain syndrome, dosing from day of fracture", "format": "in vivo", "description": "The effect of orally administered zoledronic acid was examined in the rat tibia fracture model of complex regional pain syndrome (CRPS). CRPS was induced in the rats by fracturing the right distal tibias of the animals and casting the fractured hindpaws for 4 weeks, as described in Guo T Z et al. (Pain. 2004; 108: 95-107).\nAnimals were orally administered either vehicle (control) or zoledronic acid, in a dosage of 18 mg/m^2/day (3 mg/kg/day) for 28 days, starting on the day of fracture and casting. Drug was dissolved in distilled water and administered by gavage. Animals were fasted for 4 hours before and 2 hours after dosing. At the end of the 28-day period, casts were removed, and on the following day, the rats were tested for hindpaw pain, edema, and warmth.\nPain was assessed by measuring hyperalgesia, and weight bearing.\nTo measure hyperalgesia, an up-down von Frey testing paradigm was used. Rats were placed in a clear plastic cylinder (20 cm in diameter) with a wire mesh bottom and allowed to acclimate for 15 minutes. The paw was tested with one of a series of eight von Frey hairs ranging in stiffness from 0.41 g to 15.14 g. The von Frey hair was applied against the hindpaw plantar skin at approximately midsole, taking care to avoid the tori pads. The fiber was pushed until it slightly bowed and then it was jiggled in that position for 6 seconds. Stimuli were presented at an interval of several seconds. Hindpaw withdrawal from the fiber was considered a positive response. […]\nAn incapacitance device (IITC Inc. Life Science, Woodland, CA, USA) was used to measure hindpaw weight bearing, a postural effect of pain. […] Eight readings (excluding the highest and lowest ones) were averaged to calculate the bilateral hindpaw weight-bearing values. Weight bearing data were analyzed as the ratio between right (fracture) and left hindpaw weight bearing values ((2R/(R+L))×100%). […]\nThe temperature of the hindpaw was measured using a fine wire thermocouple (Omega, Stanford, CT, USA) applied to the paw skin. […]"}, "[3]": {"settings": "18 mg/m^2/day oral for 28 days from fracture"}}}
{"smiles": "O=P(O)(O)C(O)(Cn1ccnc1)P(=O)(O)O", "note": "[zoledronic acid]", "values": [{"measurement": "average VAS scores decreased from baseline", "setting": "[1]; OARSI Grade 0", "value": "approximately 25 mm"}, {"measurement": "average VAS scores decreased from baseline", "setting": "[1]; OARSI Grade 1", "value": "~21", "unit": "mm"}, {"measurement": "average VAS scores decreased from baseline", "setting": "[1]; OARSI Grade 2", "value": 9, "unit": "mm"}, {"measurement": "Pain Reduction Compared to Placebo at Three Months, VAS Change", "setting": "[1]; All patients", "value": "−4.8", "unit": "mm"}, {"measurement": "Change in VAS Pain Scores at Three Months", "setting": "[1]; Baseline VAS < 50 mm", "value": "−7.3", "unit": "mm"}, {"measurement": "Change in VAS Pain Scores at Three Months, Difference from Placebo", "setting": "[1]; Baseline VAS < 50 mm", "value": "−0.6", "unit": "mm"}, {"measurement": "Change in VAS Pain Scores at Three Months", "setting": "[1]; Baseline VAS ≥ 50 mm", "value": "−26.2", "unit": "mm"}, {"measurement": "Change in VAS Pain Scores at Three Months, Difference from Placebo", "setting": "[1]; Baseline VAS ≥ 50 mm", "value": "−9.0", "unit": "mm"}, {"measurement": "Pain Reduction Compared to Placebo at Three Months, VAS Change", "setting": "[1]; Baseline VAS ≥ 50 mm + OARSI Grade 0", "value": "−19.4", "unit": "mm"}, {"measurement": "Change in VAS Pain Scores at Three Months", "setting": "[1]; OARSI Grade 0", "value": "−24.6", "unit": "mm"}, {"measurement": "Change in VAS Pain Scores at Three Months, Difference from Placebo", "setting": "[1]; OARSI Grade 0", "value": "−15.0", "unit": "mm"}, {"measurement": "Change in VAS Pain Scores at Three Months", "setting": "[1]; OARSI Grades 1-2", "value": "−13.2", "unit": "mm"}, {"measurement": "Change in VAS Pain Scores at Three Months, Difference from Placebo", "setting": "[1]; OARSI Grades 1-2", "value": "−0.28", "unit": "mm"}, {"measurement": "average VAS scores reduced as compared to placebo", "setting": "[1]; OARSI Grade 0", "value": 15, "unit": "mm"}, {"measurement": "average VAS scores reduced as compared to placebo", "setting": "[1]; OARSI Grades 1-2", "value": 0.28}, {"measurement": "average VAS scores reduced as compared to placebo", "setting": "[1]; baseline VAS 50 mm", "value": 9, "unit": "mm"}, {"measurement": "average VAS scores reduced as compared to placebo", "setting": "[1]; baseline VAS<50 mm", "value": 0.6}, {"measurement": "overall effect compared to vehicle treated animals", "setting": "[2]; 18 mg/m^2/day (3 mg/kg/day) oral for 28 days from fracture", "value": "reversed pain, restored weight bearing, and prevented edema"}, {"measurement": "hindlimb weight bearing", "setting": "[2]; [3]", "value": "86 % of normal"}, {"measurement": "reversal of fracture induced pain (von Frey) as compared to vehicle", "setting": "[2]; [3]", "value": 77, "unit": "%"}]}
